Assay results reported in ChEMBL document CHEMBL4350985, “1,3-Dioxane as a scaffold for potent and selective 5-HT1AR agonist with in-vivo anxiolytic, anti-depressant and anti-nociceptive activity” (Eur J Med Chem, 2019).
The source made the active and inactive calls. The calls are words filed in the database; no cut-off is given here.

What was measured:
Rattus norvegicus [1] = species: Rattus norvegicus; test: Selectivity for antagonist activity at Wistar rat thoracic aorta alpha 1D adrenoceptor over antagonist activity at Wistar rat prostate vas deferens alpha 1A adrenoceptor
Rattus norvegicus [2] = species: Rattus norvegicus; test: Selectivity for antagonist activity at Wistar rat thoracic aorta alpha 1D adrenoceptor over antagonist activity at Wistar rat spleen alpha 1B adrenoceptor
[3] = biological target: T1, Alpha-1A adrenergic receptor (Rattus norvegicus) (UniProt P43140); test: Antagonist activity at alpha-1a adrenergic receptor in Wistar rat prostatic vas deferens assessed as inhibition of (-)-noradrenaline-induced contraction
T1 sequence (whole entry): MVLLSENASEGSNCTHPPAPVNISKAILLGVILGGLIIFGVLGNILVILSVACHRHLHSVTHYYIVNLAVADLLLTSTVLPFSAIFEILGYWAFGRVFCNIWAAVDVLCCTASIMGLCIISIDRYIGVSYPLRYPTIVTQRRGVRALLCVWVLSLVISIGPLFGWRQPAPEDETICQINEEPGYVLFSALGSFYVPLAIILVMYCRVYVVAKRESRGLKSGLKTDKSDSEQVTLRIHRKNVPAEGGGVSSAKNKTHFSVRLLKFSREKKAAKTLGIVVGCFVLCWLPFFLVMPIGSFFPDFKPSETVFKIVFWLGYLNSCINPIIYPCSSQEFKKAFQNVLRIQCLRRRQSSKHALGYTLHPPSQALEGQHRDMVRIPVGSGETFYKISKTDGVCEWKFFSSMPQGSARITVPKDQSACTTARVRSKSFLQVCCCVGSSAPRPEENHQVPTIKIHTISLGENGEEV

[4] = biological target: T2, 5-hydroxytryptamine receptor 1A (Homo sapiens) (UniProt P08908); details: HeLa
T2 sequence (whole entry): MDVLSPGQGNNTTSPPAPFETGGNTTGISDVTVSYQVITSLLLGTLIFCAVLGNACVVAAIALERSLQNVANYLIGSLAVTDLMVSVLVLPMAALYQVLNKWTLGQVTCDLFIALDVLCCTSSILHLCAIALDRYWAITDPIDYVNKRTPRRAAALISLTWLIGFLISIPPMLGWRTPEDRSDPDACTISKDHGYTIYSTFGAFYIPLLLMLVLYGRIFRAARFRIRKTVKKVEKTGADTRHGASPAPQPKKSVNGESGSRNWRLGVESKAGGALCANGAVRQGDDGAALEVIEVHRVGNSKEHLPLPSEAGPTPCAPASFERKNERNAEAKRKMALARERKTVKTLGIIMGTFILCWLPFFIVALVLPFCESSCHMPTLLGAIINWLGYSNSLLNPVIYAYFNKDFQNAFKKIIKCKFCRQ
Description: Agonist activity at human recombinant 5HT1A receptor expressed in human HeLa cells assessed as increase in [35S]GTPgammaS binding incubated for 20 mins by liquid scintillation counter

[5] = biological target: T3, Alpha-1B adrenergic receptor (Rattus norvegicus) (UniProt P15823); test: Antagonist activity at alpha-1b adrenergic receptor in Wistar rat spleen assessed as inhibition of (-)-phenylephrine-induced contraction; format: tissue-based
T3 sequence (whole entry): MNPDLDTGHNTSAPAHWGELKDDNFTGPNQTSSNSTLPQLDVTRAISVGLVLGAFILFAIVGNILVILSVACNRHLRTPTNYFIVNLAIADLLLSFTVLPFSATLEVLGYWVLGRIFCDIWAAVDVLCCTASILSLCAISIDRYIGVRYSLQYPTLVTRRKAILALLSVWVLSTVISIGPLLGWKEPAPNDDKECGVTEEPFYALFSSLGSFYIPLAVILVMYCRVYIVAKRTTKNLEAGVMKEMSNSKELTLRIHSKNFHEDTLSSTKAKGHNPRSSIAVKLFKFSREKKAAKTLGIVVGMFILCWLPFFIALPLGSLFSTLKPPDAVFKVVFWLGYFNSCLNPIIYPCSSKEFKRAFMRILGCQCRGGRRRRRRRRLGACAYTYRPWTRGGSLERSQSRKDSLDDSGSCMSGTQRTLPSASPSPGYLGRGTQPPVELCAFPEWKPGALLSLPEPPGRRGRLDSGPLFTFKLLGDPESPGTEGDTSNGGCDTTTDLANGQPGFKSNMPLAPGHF

[6] = biological target: T4, Alpha-1D adrenergic receptor (Rattus norvegicus) (UniProt P23944); test: Antagonist activity at alpha-1d adrenergic receptor in Wistar rat thoracic aorta assessed as inhibition of (-)-noradrenaline-induced contractions
T4 sequence (whole entry): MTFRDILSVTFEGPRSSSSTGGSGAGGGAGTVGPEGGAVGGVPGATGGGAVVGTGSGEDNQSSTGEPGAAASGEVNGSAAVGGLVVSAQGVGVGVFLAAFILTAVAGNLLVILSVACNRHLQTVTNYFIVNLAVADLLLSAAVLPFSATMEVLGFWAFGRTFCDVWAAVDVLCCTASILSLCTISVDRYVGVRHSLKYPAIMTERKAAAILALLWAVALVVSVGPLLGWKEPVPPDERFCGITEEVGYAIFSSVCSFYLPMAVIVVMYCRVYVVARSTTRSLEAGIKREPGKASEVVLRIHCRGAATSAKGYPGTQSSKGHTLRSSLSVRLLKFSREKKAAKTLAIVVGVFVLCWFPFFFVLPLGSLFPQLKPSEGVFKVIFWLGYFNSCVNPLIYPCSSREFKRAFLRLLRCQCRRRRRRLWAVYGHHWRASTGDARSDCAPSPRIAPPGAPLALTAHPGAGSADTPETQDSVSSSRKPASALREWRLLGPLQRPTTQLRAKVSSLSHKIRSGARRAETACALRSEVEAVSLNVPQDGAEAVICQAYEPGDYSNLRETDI

[7] = biological target: T5, Alpha-1A adrenergic receptor (Homo sapiens, UniProt P35348); test: biochemical
T5 sequence (P35348 whole entry): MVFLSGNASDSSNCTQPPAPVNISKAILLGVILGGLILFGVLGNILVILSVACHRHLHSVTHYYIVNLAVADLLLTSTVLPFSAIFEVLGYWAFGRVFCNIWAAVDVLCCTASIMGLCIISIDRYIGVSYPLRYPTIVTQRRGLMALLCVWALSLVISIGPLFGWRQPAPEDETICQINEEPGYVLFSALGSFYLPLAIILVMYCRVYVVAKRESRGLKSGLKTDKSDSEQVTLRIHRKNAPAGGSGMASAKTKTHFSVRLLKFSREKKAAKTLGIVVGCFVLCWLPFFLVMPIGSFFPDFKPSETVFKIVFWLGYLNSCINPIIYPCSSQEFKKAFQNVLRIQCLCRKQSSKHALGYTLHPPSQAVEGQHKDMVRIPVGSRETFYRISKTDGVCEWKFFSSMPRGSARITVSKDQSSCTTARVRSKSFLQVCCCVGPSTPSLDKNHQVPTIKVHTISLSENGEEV
Description: Displacement of [3H] prazosin from human cloned adrenoceptor alpha 1A expressed in CHO cell membrane incubated for 30 mins by liquid scintillation counting

[8] = biological target: T6, Alpha-1B adrenergic receptor (Homo sapiens, UniProt P35368); test: Displacement of [3H] prazosin from human cloned adrenoceptor alpha 1B expressed in CHO cell membrane incubated for 30 mins by liquid scintillation counter
T6 sequence (P35368 whole entry): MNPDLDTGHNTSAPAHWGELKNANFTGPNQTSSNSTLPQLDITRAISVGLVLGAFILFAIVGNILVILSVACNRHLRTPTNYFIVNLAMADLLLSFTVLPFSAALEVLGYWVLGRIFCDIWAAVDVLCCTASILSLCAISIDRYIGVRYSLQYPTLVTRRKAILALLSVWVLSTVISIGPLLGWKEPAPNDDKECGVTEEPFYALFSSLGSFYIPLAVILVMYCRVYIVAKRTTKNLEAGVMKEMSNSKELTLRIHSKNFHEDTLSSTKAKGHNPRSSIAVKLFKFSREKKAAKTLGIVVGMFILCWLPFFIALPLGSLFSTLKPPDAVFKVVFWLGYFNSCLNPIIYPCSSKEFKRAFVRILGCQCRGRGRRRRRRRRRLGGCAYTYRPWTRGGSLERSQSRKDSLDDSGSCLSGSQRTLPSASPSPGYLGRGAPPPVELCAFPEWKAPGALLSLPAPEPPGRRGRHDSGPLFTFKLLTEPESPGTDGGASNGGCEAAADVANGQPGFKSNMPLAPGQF

[9] = biological target: T7, Alpha-1D adrenergic receptor (Homo sapiens, UniProt P25100); test: biochemical
T7 sequence (P25100 whole entry): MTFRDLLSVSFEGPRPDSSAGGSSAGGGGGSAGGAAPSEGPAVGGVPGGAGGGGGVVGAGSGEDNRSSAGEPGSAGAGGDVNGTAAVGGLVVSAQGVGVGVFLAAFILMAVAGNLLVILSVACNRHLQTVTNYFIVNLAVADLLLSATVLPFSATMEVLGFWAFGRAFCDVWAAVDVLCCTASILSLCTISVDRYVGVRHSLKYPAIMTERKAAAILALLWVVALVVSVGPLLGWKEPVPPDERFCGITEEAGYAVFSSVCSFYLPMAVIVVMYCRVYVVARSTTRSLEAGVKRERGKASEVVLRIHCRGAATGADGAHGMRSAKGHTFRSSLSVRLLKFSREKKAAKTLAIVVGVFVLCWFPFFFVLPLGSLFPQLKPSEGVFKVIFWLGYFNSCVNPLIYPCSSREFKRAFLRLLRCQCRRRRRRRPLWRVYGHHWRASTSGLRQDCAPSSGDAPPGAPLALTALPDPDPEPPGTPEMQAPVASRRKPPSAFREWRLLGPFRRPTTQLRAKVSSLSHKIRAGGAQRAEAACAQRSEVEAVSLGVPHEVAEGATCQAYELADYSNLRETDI
Description: Displacement of [3H] prazosin from human cloned adrenoceptor alpha 1D expressed in CHO cell membrane incubated for 30 mins by liquid scintillation counter

[10] = biological target: T8, 5-hydroxytryptamine receptor 1A (Homo sapiens, UniProt P08908); test: Displacement of [3H]8-OH-DPAT from human cloned 5HT-1AR transfected in HeLa cells incubated for 30 mins by liquid scintillation counter; format: cell-based
T8 sequence (P08908 whole entry): T2 sequence (whole entry)

Rattus norvegicus [11] = test: Effect on locomotory activity in Sprague-Dawley rat assessed as distance travelled at 0.5 mg/kg, ip by open field test; format: functional, organism-based
Rattus norvegicus [12] = test: Anxiolytic activity at Sprague-Dawley rat assessed as increase in time spent in open arm at 0.5 mg/kg, ip by EPM test relative to control; format: functional
Rattus norvegicus [13] = test: Antidepressant activity in Sprague-Dawley rat assessed as increase in time spent in swimming at 0.5 mg/kg, ip by forced swim test; format: functional, organism-based
[14] = Half life in Sprague-Dawley rat plasma at 10 mg/kg, po measured upto 480 mins by LC/MS-MS analysis; format: ADME, organism-based
Rattus norvegicus [15] = test: Antidepressant activity in Sprague-Dawley rat assessed as decrease in time of immobilization at 0.5 mg/kg, ip by forced swim test; format: functional, organism-based
Rattus norvegicus [16] = test: Antidepressant activity in Sprague-Dawley rat assessed as time spent on climbing at 0.5 mg/kg, ip by forced swim test; format: functional, organism-based
Rattus norvegicus [17] = test: Anxiolytic activity at Sprague-Dawley rat assessed as number of open arm entries at 0.5 mg/kg, ip by EPM test; format: functional, organism-based

Row | SMILES | Ratio pKb (Rattus norvegicus [1]) | Ratio pKb (Rattus norvegicus [2]) | pKb [3] | pD2 [4] | pKb [5] | pKb [6] | Ki [7] [µM] | Ki [8] [µM] | Ki [9] [µM] | Ki [10] [µM] | Activity (Rattus norvegicus [11]) | Activity (Rattus norvegicus [12]) [%] | Activity (Rattus norvegicus [13]) | half-life [14] [min] | inhibition (Rattus norvegicus [15]) | Activity (Rattus norvegicus [16]) | Activity (Rattus norvegicus [17])
1 | c1ccc(OCCNCC2COC(c3ccccc3)(c3ccccc3)O2)cc1 (stereo unspecified) | > 100 | > 100 | 6.16 | 8.8 | 5.86 | 8.37 |  |  |  |  |  |  |  |  |  |  | 
2 | COc1ccccc1OCCNCC1COC(c2ccccc2)(c2ccccc2)O1 (stereo unspecified) |  |  | 7.53 | 7.36 | 7.36 | 8.65 |  |  |  |  |  |  |  |  |  |  | 
3 | COc1ccccc1OCCNC[C@@H]1CO[C@H](C(c2ccccc2)c2ccccc2)O1 (relative stereo) |  |  | 6.16 |  | 6.75 | 7.52 | 0.977 | 0.0372 | 0.00437 | 0.00316 |  |  |  |  |  |  | 
4 | c1ccc(OCCNC[C@@H]2CO[C@H](C(c3ccccc3)c3ccccc3)O2)cc1 (relative stereo) |  |  | 6.22 |  | 6.83 | 6.72 | 0.427 | 0.102 | 0.0295 | 0.0115 |  |  |  |  |  |  | 
5 | c1ccc(OCCNCC[C@@H]2CO[C@H](C(c3ccccc3)c3ccccc3)O2)cc1 (relative stereo) |  |  | 6.14 |  | 6.43 | 7.15 | 0.17 | 0.107 | 0.0759 | 0.0603 |  |  |  |  |  |  | 
6 | COc1ccccc1OCCNC[C@H]1CO[C@H](C(c2ccccc2)c2ccccc2)O1 (relative stereo) |  |  | 6.78 |  | 6.82 | 7.64 | 0.0309 | 0.0275 | 0.00708 | 0.002 |  |  |  |  |  |  | 
7 | Br.CCCN(CCC)C1CCc2cccc(O)c2C1 (stereo unspecified) |  |  |  |  |  |  |  |  |  |  | inactive | 19 | Active | 27 | Active | inactive | inactive
8 | c1ccc(OCCNCCC2COC(c3ccccc3)(c3ccccc3)O2)cc1 (stereo unspecified) |  |  | 6.34 |  | 6.49 | 7.04 | 0.0589 | 0.0955 | 0.0302 | 0.724 |  |  |  |  |  |  | 
9 | c1ccc(OCCNC[C@H]2CO[C@H](C(c3ccccc3)c3ccccc3)O2)cc1 (relative stereo) |  |  | 6.29 |  | 6.26 | 6.7 | 0.12 | 0.102 | 0.0871 | 0.00525 |  |  |  |  |  |  | 
10 | c1ccc(OCCNCC[C@H]2CO[C@H](C(c3ccccc3)c3ccccc3)O2)cc1 (relative stereo) |  |  | 5.71 |  | 6.66 | 7.22 | 0.0891 | 0.166 | 0.0955 | 0.0575 |  |  |  |  |  |  | 
